The text below walks through data of US20130084614A1, “METHODS OF REMOVING INHIBITORS FROM CELLULOSIC BIOMASS AND PRODUCING ALCOHOLS” (3M INNOVATIVE PROPERTIES COMPANY, priority 2010, published 2013).

The nature of series [1]: Confirmatory laboratory extraction of a synthetic inhibitor/sugar mixture. It counts as physicochemical. Conditions: 5 mL synthetic solution + 5 mL solvent, 20° C., HPLC. The text has this:
In order to define a standardized method of comparing solvents, a new parameter called extraction yield was created. Extraction yield is a ratio of the concentration of a species in the extract to the concentration of that species in the feed. […].
Another parameter, the extraction score, was defined in order to rank overall inhibitor removal performance. Each extraction yield of inhibitors and sugars was multiplied by a weighting factor determined by the importance of removing or retaining the particular compound in the feed. The resulting numbers were then summed to calculate the extraction score.
The confirmatory extraction of a synthetic inhibitor/sugar mixture was next carried out using inhibitors and sugars to mimic the conditions in acid-pretreated cellulosic fermentation feed. The synthetic solutions contained 1 g/L each of formic acid, lactic acid, acetic acid, furfural, HMF and vanillin as well as 20 g/L of glucose and 60 g/L of xylose. Five mL of this synthetic solution and 5 mL of solvent were added to a test tube and the test tubes were shaken in a Lab Line Instruments (Mumbai, India) “MULTI-WRIST SHAKER” at a setting of 8 for 10 min at 20° C. The mixture was allowed to settle overnight to phase separate completely. Inhibitor concentrations in each phase were analyzed by an Agilent Technologies (Santa Clara, Calif.) 1100 HPLC system consisting of a quaternary gradient pump, autosampler, heated column compartment, and diode array absorbance detector. Gradient elution was done on a YMC Company Ltd. (Kyoto, Japan) “YMC Carotenoid S-5” (C30) column with 0.05% phosphoric acid and a solvent ramp of 0% acetonitrile/100% water to 90% acetonitrile/10% water and back over 32.5 minutes. Based on the measured concentration of each inhibitor and sugar, extraction yields and scores were calculated and shown in Table 1 and reported as “laboratory extraction yield” and “laboratory extraction score”; (see footnotes 2 and 3).

The test system of the next series is E. Coli, FBR-5 strain. In words: Fermentation of extracted C5 fraction, sugar and ethanol by HPLC. It counts as cell-based, Escherichia coli.
The conditions of series [2]: cited from earlier work.
The mark [3] stands for this setting: CE2 liquid/liquid solvent extraction (not membrane), 0 hrs.
Where [4] appears, read: CE2 liquid/liquid solvent extraction (not membrane), 24 hrs.
Where [5] appears, read: EX4 multilayer cross-flow MSE, 0 hrs.
[6] abbreviates: EX4 multilayer cross-flow MSE, 24 hrs.
The mark [7] stands for this setting: EX4 multilayer cross-flow MSE, 48 hrs.
[8] abbreviates: IUPAC-NIST Solubility Data Series / Yaws' Handbook.

Where a name gives a salt, the structure may show the parent alone. Read-outs that look alike come from different tables or passages of the source.

As to `CCCCCCCCCCO` [1-decanol], in series [1], the “laboratory extraction yield, Acetic acid” value was 0.281^3; the “laboratory extraction yield, Formic acid” value is recorded as 0.180^3; the “laboratory extraction yield, Furfural” value is given as 0.666^3; the “laboratory extraction yield, HMF” value is reported as 0.280^3. Further, in series [1], the “laboratory extraction yield, Lactic acid” value was 0.120^3 and the “laboratory extraction yield, Vanillin” value is 0.911^3. In the series on E. Coli, FBR-5 strain (setting [3]), this compound showed an Ethanol of 0 g/L and a Sugar of 48 g/L. Further, in the series on E. Coli, FBR-5 strain (setting [4]), the Ethanol stood at 23 g/L and the Sugar worked out at 1 g/L. Further, in the series with E. Coli, FBR-5 strain (EX3 single layer MSE, 0 hrs), the Ethanol is reported as 0 g/L and the Sugar is 48 g/L. For the same compound, in the series on E. Coli, FBR-5 strain (EX3 single layer MSE, 24 hrs), the Ethanol is 20 g/L and the Sugar is 3 g/L. In the series with E. Coli, FBR-5 strain (setting [5]), this compound had an Ethanol of 0 g/L and a Sugar of 50 g/L. In addition, in the series with E. Coli, FBR-5 strain (setting [6]), the Ethanol stood at 12 g/L and the Sugar was 30 g/L. Further, in the series with E. Coli, FBR-5 strain (setting [7]), the Ethanol came to 18 g/L and the Sugar is given as 12 g/L. For the same compound, the “Water Solubility” value in series [2] (literature values) is listed as 0.10 g/100 mL.

Regarding `CCCCNCCCC` [Dibutylamine], the “Water Solubility” value in series [2] (literature values) is on record as 0.35 g/100 mL.

`CCCCCCCCCCCCCC` [n-tetradecane]: in series [2] (literature values), the “Water Solubility” value is recorded as 0.10 g/100 mL.

For `CCCC(=O)OCC` [ethyl butyrate], in series [1], the “laboratory extraction yield, Acetic acid” value is 0.221^3; the “laboratory extraction yield, Formic acid” value is 0.160^3; the “laboratory extraction yield, Furfural” value was 0.937^3; the “laboratory extraction yield, HMF” value is given as 0.360^3. Besides, in series [1], the “laboratory extraction yield, Lactic acid” value is recorded as 0.050^3 and the “laboratory extraction yield, Vanillin” value is 1.001^3. For the same compound, the “Water Solubility” value in series [2] (literature values) is recorded as 0.50 g/100 mL.

Regarding `CCCCCCCCCCCCO` [1-dodecanol], in series [1], the “laboratory extraction yield, Acetic acid” value is recorded as 0.000^3; the “laboratory extraction yield, Formic acid” value is 0.020^3; the “laboratory extraction yield, Furfural” value is given as 0.593^3; the “laboratory extraction yield, HMF” value is given as 0.200^3. In series [1], the “laboratory extraction yield, Lactic acid” value is on record as 0.050^3 and the “laboratory extraction yield, Vanillin” value is recorded as 0.903^3.

For the compound `CC(=O)c1ccccc1` [Acetophenone], in series [1], the “laboratory extraction yield, Acetic acid” value was 0.351^3; the “laboratory extraction yield, Formic acid” value is reported as 0.234^3; the “laboratory extraction yield, Furfural” value was 0.917^3; the “laboratory extraction yield, HMF” value is listed as 0.647^3. For the same compound, in series [1], the “laboratory extraction yield, Lactic acid” value was 0.137^3 and the “laboratory extraction yield, Vanillin” value is on record as 0.700^3. Moreover, the “Water Solubility” value in series [2] (literature values) is 0.10 g/100 mL.

As to `O=Cc1ccccc1` [benzaldehyde], in series [1], the “laboratory extraction yield, Acetic acid” value was 0.301^3; the “laboratory extraction yield, Formic acid” value is on record as 0.200^3; the “laboratory extraction yield, Furfural” value is given as 1.114^3; the “laboratory extraction yield, HMF” value is 0.841^3. Moreover, in series [1], the “laboratory extraction yield, Lactic acid” value is recorded as 0.070^3 and the “laboratory extraction yield, Vanillin” value is listed as 1.392^3. Moreover, the “Water Solubility” value in series [2] (literature values) is listed as 0.01 g/100 mL.

As to `CCCCCCCCN(CCCCCCCC)CCCCCCCC` [Trioctylamine], the “Water Solubility” value in series [2] (literature values) is recorded as 0.10 g/100 mL.

Regarding `CCCCC(CC)CO` (stereo not drawn) [2-ethyl-1-hexanol], in series [1], the “laboratory extraction yield, Acetic acid” value is reported as 0.352^3; the “laboratory extraction yield, Formic acid” value is recorded as 0.213^3; the “laboratory extraction yield, Furfural” value is 0.669^3; the “laboratory extraction yield, HMF” value is 0.337^3. Besides, in series [1], the “laboratory extraction yield, Lactic acid” value is recorded as 0.112^3 and the “laboratory extraction yield, Vanillin” value is reported as 0.918^3.

As for `CCCCC(C)O` (stereo not drawn) [2-hexanol], the “Water Solubility” value in series [2] (literature values) was 0.35 g/100 mL.

Consider `CCCN(CCC)CCC` [tripropylamine], for which the “Water Solubility” value in series [2] (literature values) was 0.10 g/100 mL.

Consider `CCOCC` [diethyl ether, reference compound], for which the Water Solubility in series [2] (setting [8]) is listed as 6.9 grams per 100 mL.

Consider `CC(C)OC(C)C` [isopropyl ether], for which the “Water Solubility” value in series [2] (literature values) was 0.20 g/100 mL.

`CCCCCC` [n-hexane]: the “Water Solubility” value in series [2] (literature values) is reported as 0.10 g/100 mL.

For `CCCCCCCC(C)=O` [2-nonanone], in series [2] (literature values), the “Water Solubility” value is reported as 0.050 g/100 mL.

Regarding `CCCCOC(=O)/C=C\C(=O)OCCCC` [dibutyl maleate], the Ethanol in the series with E. Coli, FBR-5 strain (setting [3]) stood at 0 g/L; in the series with E. Coli, FBR-5 strain (setting [4]), 20 g/L; with E. Coli, FBR-5 strain (EX3 single layer MSE, 0 hrs), 0 g/L; in the series with E. Coli, FBR-5 strain (EX3 single layer MSE, 24 hrs), 19 g/L. Besides, the Sugar was determined as 45 g/L in the series with E. Coli, FBR-5 strain (setting [3]); 1 g/L in the series with E. Coli, FBR-5 strain (setting [4]); 51 g/L with E. Coli, FBR-5 strain (EX3 single layer MSE, 0 hrs); 2 g/L in the series with E. Coli, FBR-5 strain (EX3 single layer MSE, 24 hrs).

For `CCCCCCCCCCCC` [n-dodecane], the “Water Solubility” value in series [2] (literature values) is 0.10 g/100 mL.

With `CCCCCCC(C)O` (stereo not drawn) [2-octanol], in series [1], the “laboratory extraction yield, Acetic acid” value is given as 0.397^3; the “laboratory extraction yield, Formic acid” value was 0.280^3; the “laboratory extraction yield, Furfural” value is given as 0.687^3; the “laboratory extraction yield, HMF” value was 0.394^3. In addition, in series [1], the “laboratory extraction yield, Lactic acid” value is 0.155^3 and the “laboratory extraction yield, Vanillin” value is on record as 0.937^3. Besides, in series [2] (literature values), the “Water Solubility” value was 0.11 g/100 mL.

As for `CCCCCCCCCC` [n-decane], in series [2] (literature values), the “Water Solubility” value is 0.10 g/100 mL.

`CCCCCCC(=O)CC` [3-nonanone]: in series [1], the “laboratory extraction yield, Acetic acid” value was 0.321^3; the “laboratory extraction yield, Formic acid” value is 0.130^3; the “laboratory extraction yield, Furfural” value is listed as 0.895^3; the “laboratory extraction yield, HMF” value is 0.310^3. Further, in series [1], the “laboratory extraction yield, Lactic acid” value is listed as 0.030^3 and the “laboratory extraction yield, Vanillin” value is 0.931^3. In addition, in series [2] (literature values), the “Water Solubility” value is listed as 0.010 g/100 mL.

For `C1CCCCC1` [cyclohexane], the “Water Solubility” value in series [2] (literature values) is 0.0017 g/100 mL.

In the case of `C1CCC2CCCCC2C1` (stereo not drawn) [decahydronapthalene], in series [2] (literature values), the “Water Solubility” value is listed as 0.002 g/100 mL.

As to `CCCCCCCC/C=C\CCCCCCCCO` [Oleyl alcohol], in series [2] (literature values), the “Water Solubility” value is given as 0.018 g/100 mL.

`CCCCCCCCO` [1-octanol]: in series [1], the “laboratory extraction yield, Acetic acid” value is on record as 0.361^3; the “laboratory extraction yield, Formic acid” value is 0.239^3; the “laboratory extraction yield, Furfural” value is 0.728^3; the “laboratory extraction yield, HMF” value is reported as 0.360^3. Moreover, in series [1], the “laboratory extraction yield, Lactic acid” value is 0.180^3 and the “laboratory extraction yield, Vanillin” value is 0.931^3. In series [2] (literature values), the “Water Solubility” value was 0.11 g/100 mL.

On to `CCOC(C)=O` [ethyl acetate, reference compound], for which the Water Solubility in series [2] (setting [8]) was 8.3 grams per 100 mL.

`CC(C)CC(O)CC(C)C` [2,6-dimethyl-4-heptanol]: in series [1], the “laboratory extraction yield, Acetic acid” value was 0.301^3; the “laboratory extraction yield, Formic acid” value is on record as 0.180^3; the “laboratory extraction yield, Furfural” value is listed as 0.593^3; the “laboratory extraction yield, HMF” value is reported as 0.220^3. In series [1], the “laboratory extraction yield, Lactic acid” value was 0.070^3 and the “laboratory extraction yield, Vanillin” value was 0.851^3. Besides, the “Water Solubility” value in series [2] (literature values) is 0.045 g/100 mL.
